Measurements from patent publication US5935966A, “Pyrimidine carboxylates and related compounds and methods for treating inflammatory conditions” (Signal Pharmaceuticals, Inc., priority 1996, dated 1999).

Tested on: delayed-type hypersensitivity response to oxazolone
Assay: not given
Details: Morris et al. 1990; cited from earlier work

Structure (SMILES) | activity in delayed-type hypersensitivity (oxazolone) model
O=P1(N(CCCl)CCCl)NCCCO1 (stereo not shown) [cyclophosphamide] | active

Tested on: popliteal lymph node (graft vs. host)
Assay: not given
Details: Morris et al. 1990; cited from earlier work

Structure (SMILES) | activity in popliteal lymph node (graft vs. host) model
O=P1(N(CCCl)CCCl)NCCCO1 (stereo not shown) [cyclophosphamide] | active

Tested on: NFκB and AP-1
Assay: NFκB and AP-1 luciferase reporter assays in stable Jurkat T-cells (PMA/PHA stimulated)
Format: cell-based, human
Details: Homo sapiens, average of NFκB and AP-1 assays, read-out: ICm (average of the measurements obtained from the NFκB and AP-1 assays)
Text: Stable human Jurkat T-cells containing an NFκB binding site (from the MHC promoter) fused to a minimal SV-40 promoter driving luciferase expression were used in this experiment. Cells were split to 3×10^5 cells/mL every 2-3 days (cell concentration should not exceed 1×10^6 cells/mL to keep the cells proliferating in log phase). These cells were counted, resuspended in fresh medium containing 10% Serum-Plus at a density of 1×10^6 cells/mL and plated in 96 well round bottom plates (200 μ.LAMBDA. per well) 18 hours prior to starting the experiment.
Compounds of this invention, dissolved in dimethyl sulfoxide (3.3, 0.33 and 0.03 μg/mL), were then added to the 96 well plates containing the cells and the plates were incubated for 0.5 h at 37° C. Then 50 ng/mL of phorbol 12-myristate-13-acetate (PMA) and 1 μg/mL of phytohemagglutinin (PHA) were added to each well and the cells were incubated for an additional 5 h at 37° C. The plates were centrifuged at 2200 RPM for 3 minutes at room temperature and then the medium was removed. To each well was added 60 μL of cell lysis buffer and the plates were left at room temperature for 0.25 h. Then 40 μL of each cell extract was transferred to a black 96 well plate and 50 μL of luciferase substrate buffer was added. Luminescence was immediately measured using a Packard TopCount.
For AP-1, the assay was run as described above for NFκB except stable Jurkat T-cells were used that contained a collagenase promoter driving luciferase expression. In addition, the concentration of PMA used was 5 ng/mL.
The IC50 values reported in Table 3 are the average of the measurements obtained from the NFκB and AP-1 assays described above.

IC50 | Structure (SMILES)
4900 nM | CCc1nc(N(C)N2C(=O)C=C(C)C2=O)ncc1CO [Example 111, 2-[N-(1'-AMINOCITRACONAMIDO)-N-METHYL]-4-ETHYL-5-(HYDROXYMETHYL)PYRIMIDINE]
400 nM | CCOC(=O)c1cnc(N(C(=O)OCC)N2C(=O)C=C(C)C2=O)nc1C(F)(F)F [Example 99, ETHYL 2-[N-(1'-AMINOCITRACONAMIDO)-N-(ETHOXYCARBONYL)]-4-TRIFLUOROMETHYLPYRIMIDINE-5-CARBOXYLATE]
200 nM | CCOC(=O)c1cnc(N(C)N2C(=O)C=C(C)C2=O)nc1-c1ccsc1 [Example 89, ETHYL 2-[N-(1'-AMINOCITRACONAMIDO-N-METHYL)]-4-(3-THIENYL)PYRIMIDINE-5-CARBOXYLATE]
800 nM | CCOC(=O)c1cnc(-c2cccs2)nc1N(C)N1C(=O)C=C(C)C1=O [Example 123, ETHYL 4-[N-(1'-AMINOCITRACONAMIDO)-N-METHYL]-2-(2'-THIENYL)-PYRIMIDINE-5-CARBOXYLATE]
200 nM | CC1=CC(=O)N(Nc2nc(-c3cccs3)ncc2C2=NCCO2)C1=O [Example 140, 4-[N-(1'-AMINOCIACONAMIDO)]-5-(4",5"-DIHYDRO-2"-OXAZOLYL)-2-(2'"-THIENYL)PYRIMIDINE]
1100 nM | CCN(c1ncc(C(=O)OC)c(C(F)(F)F)n1)N1C(=O)C=C(C)C1=O [Example 94, METHYL 2-[N-(1'-AMINOCITRACONAMIDO-N-ETHYL)]-4-TRIFLUOROMETHYLPYRIMIDINE-5-CARBOXYLATE]
400 nM | CCOC(=O)c1cnc(N(C)N2C(=O)C=C(C)C2=O)nc1C(F)(F)C(F)(F)F [Example 103, ETHYL-2-[N-(1'-AMINOCITRACONAMIDO)-N-METHYL]-4-PENTAFLUOROETHYLPYRIMIDINE-5-CARBOXYLATE]
2400 nM | CCOC(=O)c1cnc(NN2C(=O)C=C(C)C2=O)nc1-c1nccs1 [Example 105, ETHYL 2-[N-(1'-AMINOCITRACONAMIDO)]-4-(2'-THIAZOLYL)PYRIMIDINE-5-CARBOXYLATE]
30 nM | CCOC(=O)c1cnc(-c2ccccc2)nc1NN1C(=O)C=C(C)C1=O [Example 115]
17000 nM | CCOC(=O)c1cnc(C)nc1NN1C(=O)C=C(C)C1=O [Example 118, ETHYL 4-[N-(1'-AMINOCITRACONAMIDO)]-2-METHYLPYRIMIDINE-5-CARBOXYLATE]
5150 nM | CC1=CC(=O)N(Nc2nc(-c3cccs3)ncc2C#N)C1=O [Example 143, 4-[N-(1'-AMINOCITRACONAMIDO)]-5-CYANO-2-(2'-THIENYL)PYRIMIDINE]
200 nM | CCOC(=O)c1cnc(N(C)N2C(=O)C=C(C)C2=O)nc1-c1cc2ccccc2s1 [Example 104, ETHYL 2-[N-(1'-AMINOCITRACONAMIDO)]-4-(2'-THIANAPHTHYL)PYRIMIDINE-5-CARBOXYLATE]
1100 nM | CCOC(=O)OCc1cnc(NN2C(=O)C=C(C)C2=O)nc1C(F)(F)F [Example 114, 2-[N-(1'-AMINOCITRACONAMIDO)]-5-(ETHOXYMETHYLCARBONATE)-4-TRIFLUOROMETHYLPYRIMIDINE]
310 nM | CC1=CC(=O)N(Nc2nc(-c3cccs3)ncc2-c2nc(C)co2)C1=O [Example 137, 4-[N-(1'-AMINOCITRACONAMIDO)]-5-(4"-METHYLOXAZOL-2-YL)-2-(2'"-THIENYL)PYRIMIDINE]
800 nM | CCOC(=O)c1cnc(NN2C(=O)C=C(C)C2=O)nc1-c1cc2ccccc2s1 [Example 93, ETHYL 2-[N-(1'-AMINOCITRACONAMIDO)]-4-(2'-THIANAPHTHYL)PYRIMIDINE-5-CARBOXYLATE]
100 nM | COC(=O)c1cnc(N(C)N2C(=O)C=C(C)C2=O)nc1C(F)(F)F [Example 81, METHYL 2-[N-(1'-AMINOCITRACONAMIDO)-N-METHYL]-4-TRIFLUOROMETHYLPYRIMIDINE-5-CARBOXYLATE]
1400 nM | CCOC(=O)c1cnc(-c2ccccc2)nc1N(C)N1C(=O)C=C(C)C1=O [Example 116, ETHYL-4-[N-(1'-AMINOCITRACONAMIDO)-N-METHYL]-2-PHENYLPYRIMIDINE-5-CARBOXYLATE]
500 nM | CCOC(=O)c1cnc(NN2C(=O)C=C(C)C2=O)nc1-c1ccsc1 [Example 88, ETHYL 2-[N-(1'-AMINOCITRACONAMIDO)]-4-(3'-THIENYL)PYRIMIDINE-5-CARBOXYLATE]
600 nM | CCc1nc(N(C)N2C(=O)C=C(C)C2=O)ncc1COC [Example 112, 2-[N-(1'-AMINOCITRACONAMIDO)-N-METHYL]-4-ETHYL-5-(METHOXYMETHYL)PYRIMIDINE]
400 nM | CCOC(=O)c1cnc(N(C)N2C(=O)C=C(C)C2=O)nc1-c1ccc(Cl)s1 [Example 68, ETHYL 2-[N-(1'-AMINOCITRACONAMIDO)-N-METHYL]-4-[2'-(5"-HLOROTHIENYL]PYRIMIDINE-5-CARBOXYLATE]
200 nM | CCOC(=O)c1cnc(N(C)N2C(=O)C=C(C)C2=O)nc1C1CC1 [Example 109, ETHYL 2-[N-(1'-AMINOCITRACONAMIDO-N-METHYL)]-4-CYCLOPROPYLPYRIMIDINE-5-CARBOXYLATE]
7000 nM | CCOC(=O)c1cnc(Cc2ccccc2)nc1NN1C(=O)C=C(C)C1=O [Example 119, ETHYL 4-[N-(1'-AMINOCITRACONAMIDO)]-2-BENZYLPYRIMIDINE-5-CARBOXYLATE]

Same assay, conditions: average of NFκB and AP-1 assays, read-out: ICm (average of the measurements obtained from the NFκB and AP-1 assays)

IC50 | Structure (SMILES)
3900 nM | CCOC(=O)c1cnc(NN2C(=O)C(CC)=C(CC)C2=O)nc1C(F)(F)F [Example 41, ETHYL 2-[N-(1'-AMINO-3',4'-DIETHYLMALEIMIDO)]-4-TRIFLUOROMETHYLPYRIMIDINE-5-CARBOXYLATE]
